Assay results published in patent US10174033B2, “N6-substituted adenosine derivatives and N6-substituted adenine derivatives and uses thereof” (INSTITUTE OF MATERIA MEDICA, CHINESE ACADEMY OF MEDICAL …, priority 2009, dated 2019).

Key:
[1] = system: mice; assay: Sub-threshold hypnotic dose sodium pentobarbital induced sleeping test; assay type: in vivo; settings: intraperitoneal, 30 min before sub-threshold sodium pentobarbital (22 mg/kg ip)
Procedure: N^6-substituted adenosine derivatives and/or N^6-substituted adenine derivatives potentiated sodium pentobarbital-induced sleep in mice
Name of Experiment: Sub-threshold hypnotic dose sodium pentobarbital induced sleeping test
Method of Experiment: Mice (n=7-10) were pretreated with test compound or vehicle, after 30 min, a maximal sub-threshold hypnotic dose of sodium pentobarbital (22 mg/kg) was given intraperitoneally (ip). (On some condition, the sub-threshold dosage of sodium pentobarbital should be optimized to the maximum dose, at which the rate of sleep onset of vehicle group is less than 10%). […] Following sodium pentobarbital injection, each mouse was observed 15 min for onset of sleep. The percentage of sleep onset was calculated as: (number of animals falling asleep/total number of animals)×100%.

[2] = system: male ICR-mice; assay: Potentiation of sodium pentobarbital sleeping time test; assay type: in vivo
Procedure: Effects of N^6-substituted adenosine derivatives and/or N^6-substituted adenine derivatives on sodium pentobarbital-induced sleeping time in mice.
Name of Experiment: Potentiation of sodium pentobarbital sleeping time test.
Method of Experiment: Groups of 8-10 male ICR-mice with an average weight of 18-22 g were used. They were dosed orally or i.p. with the test compound or the vehicle. Thirty min after i.p. injection or 60 min after oral dosing 38 mg/kg sodium pentobarbital were injected intravenously. The latency and duration of sleep (loss of righting reflex) were recorded. The percentage of prolongation of sleeping time was calculated as: [(sleeping time of experimental group)−(sleeping time of control group)]/(sleeping time of control group)×100%.

[3] = intraperitoneal, 5 mg/kg, 38 mg/kg sodium pentobarbital 30 min later
[4] = oral, 5 mg/kg, 38 mg/kg sodium pentobarbital 60 min later
[5] = intraperitoneal, 1 mg/kg, 38 mg/kg sodium pentobarbital 30 min later
[6] = oral, 4 mg/kg, 38 mg/kg sodium pentobarbital 60 min later

Compound: CC(Nc1ncnc2c1ncn2[C@@H]1O[C@H](CO)[C@@H](O)[C@H]1O)c1ccccc1 (mixture of isomers) [Example 45, N^6-[(±)-1-(phenyl)-ethyl]-adenosine]
- Sleep rate (%) ([1]; 5 mg/kg): 100%
- Sleep prolonging rate (%) [2, 3]: 254%
- Sleep prolonging rate (%) [2, 4]: 201%

Compound: OC[C@H]1O[C@@H](n2cnc3c(NCc4ccccc4O)ncnc32)[C@H](O)[C@@H]1O [Example 3, N^6-(o-hydroxybenzyl)-adenosine]
- Sleep rate (%) ([1]; 1 mg/kg): 88%
- Sleep prolonging rate (%) [2, 4]: 92%

Compound: Nc1cccc(CNc2ncnc3c2ncn3[C@@H]2O[C@H](CO)[C@@H](O)[C@H]2O)c1 [Example 7, N^6-(m-aminobenzyl)-adenosine]
- Sleep rate (%) ([1]; 1 mg/kg): 100%
- Sleep prolonging rate (%) [2, 5]: 101%
- Sleep prolonging rate (%) [2, 4]: 50%

Compound: O=[N+]([O-])c1ccc(CNc2ncnc3c2ncn3[C@@H]2O[C@H](CO)[C@@H](O)[C@H]2O)cc1 [Example 8, N^6-(p-nitrobenzyl)-adenosine]
- Sleep rate (%) ([1]; 1 mg/kg): 63%
- Sleep prolonging rate (%) [2, 5]: 16%
- Sleep prolonging rate (%) [2, 4]: 29%

Compound: O=[N+]([O-])c1ccccc1CNc1ncnc2c1ncn2[C@@H]1O[C@H](CO)[C@@H](O)[C@H]1O [Example 9, N^6-(o-nitrobenzyl)-adenosine]
- Sleep rate (%) ([1]; 1 mg/kg): 100%

Compound: OC[C@H]1O[C@@H](n2cnc3c(NCc4ccc(F)cc4)ncnc32)[C@H](O)[C@@H]1O [Example 11, N^6-(p-fluorobenzyl)-adenosine]
- Sleep rate (%) ([1]; 5 mg/kg): 71%
- Sleep prolonging rate (%) [2, 3]: 73%

Compound: OC[C@H]1O[C@@H](n2cnc3c(NCc4ccc(OC(F)(F)F)cc4)ncnc32)[C@H](O)[C@@H]1O [Example 12, N^6-(p-trifluoromethoxybenzyl)-adenosine]
- Sleep rate (%) ([1]; 5 mg/kg): 43%
- Sleep prolonging rate (%) [2, 3]: 44%

Compound: OC[C@H]1O[C@@H](n2cnc3c(NCc4ccc(C(F)(F)F)cc4)ncnc32)[C@H](O)[C@@H]1O [Example 13, N^6-(p-trifluoromethylbenzyl)-adenosine]
- Sleep rate (%) ([1]; 5 mg/kg): 57%
- Sleep prolonging rate (%) [2, 3]: 23%

Compound: OC[C@H]1O[C@@H](n2cnc3c(N4CCN(c5ccccc5)CC4)ncnc32)C(O)C1O (stereo partly drawn) [Example 16]
- Sleep rate (%) ([1]; 5 mg/kg): 50%
- Sleep prolonging rate (%) [2, 3]: 34%

Compound: OC[C@H]1O[C@@H](n2cnc3c(NCc4ccco4)ncnc32)[C@H](O)[C@@H]1O [Example 17, N^6-(2-furanylmethyl)-adenosine]
- Sleep rate (%) ([1]; 5 mg/kg): 71%

Compound: OC[C@H]1O[C@@H](n2cnc3c(NCc4ccc(O)c(O)c4)ncnc32)[C@H](O)[C@@H]1O [Example 22, N^6-(3,4-dihydroxybenzyl)-adenosine]
- Sleep rate (%) ([1]; 1 mg/kg): 87%
- Sleep rate (%) ([1]; 5 mg/kg): 100%
- Sleep prolonging rate (%) [2, 3]: 32%
- Sleep prolonging rate (%) [2, 6]: 74%

Compound: COc1cc(CNc2ncnc3c2ncn3[C@@H]2O[C@H](CO)[C@@H](O)[C@H]2O)ccc1O [Example 23, N^6-(3-methoxy-4-hydroxybenzyl)-adenosine]
- Sleep rate (%) ([1]; 1 mg/kg): 100%
- Sleep prolonging rate (%) [2, 6]: 87%

Compound: COc1ccc(CNc2ncnc3c2ncn3[C@@H]2O[C@H](CO)[C@@H](O)[C@H]2O)cc1O [Example 29, N^6-(4-methoxy-3-hydroxybenzyl)-adenosine]
- Sleep rate (%) ([1]; 1 mg/kg): 86%

Compound: COc1ccc(CNc2ncnc3c2ncn3[C@@H]2O[C@H](CO)[C@@H](O)[C@H]2O)cc1OC [Example 30, N^6-(3,4-dimethoxybenzyl)-adenosine]
- Sleep rate (%) ([1]; 1 mg/kg): 100%

Compound: OC[C@H]1O[C@@H](n2cnc3c(NCc4ccc5c(c4)OCO5)ncnc32)[C@H](O)[C@@H]1O [Example 31, N^6-(3,4-methylenedioxybenzyl)-adenosine]
- Sleep rate (%) ([1]; 5 mg/kg): 100%
- Sleep prolonging rate (%) [2, 3]: 175%

Compound: COc1cc(CNc2ncnc3c2ncn3[C@@H]2O[C@H](CO)C(O)C2O)cc(OC)c1O (stereo partly drawn) [Example 36, N^6-(4-hydroxy-3,5-dimethxoybenzyl)-adenosine]
- Sleep rate (%) ([1]; 5 mg/kg): 86%
- Sleep prolonging rate (%) [2, 3]: 336%
- Sleep prolonging rate (%) [2, 4]: 121%

Compound: C[C@@H](Nc1ncnc2[nH]cnc12)c1ccccc1 [Example 142, N^6-[(R)-1-(phenyl)-ethyl]-adenine]
- Sleep prolonging rate (%) [2, 4]: 21%

Compound: CC[C@@H](Nc1ncnc2[nH]cnc12)c1ccccc1 [Example 144, N^6-[(R)-1-(phenyl)-propyl]-adenine]
- Sleep prolonging rate (%) [2, 4]: 42%

Compound: CC[C@@H](Nc1ncnc2c1ncn2C1CCCO1)c1ccccc1 (stereo partly drawn) [Example 146, N^6-[(R)-1-(phenyl)-propyl]-N^9-(tetrahydrofuran-2-yl)-adenine]
- Sleep prolonging rate (%) [2, 4]: 2%

Compound: COc1cc(CNc2ncnc3c2ncn3[C@H]2C[C@@H](OC(C)=O)[C@@H](COC(C)=O)O2)ccc1O [Example 148, N^6-(3-methoxy-4-hydroxy-benzyl)-2′-deoxy-3′,5′-diacetyl adenosine]
- Sleep prolonging rate (%) [2, 4]: 71%

Compound: CC(=O)OC[C@H]1O[C@@H](n2cnc3c(NCc4ccc(C)cc4)ncnc32)C[C@H]1OC(C)=O [Example 150, N^6-(p-methylbenzyl)-2′-deoxy-3′,5′-diacetyl adenosine]
- Sleep prolonging rate (%) [2, 4]: 9%

Compound: Cc1ccc(CNc2ncnc3c2ncn3[C@H]2C[C@H](O)[C@@H](CO)O2)cc1 [Example 151, N^6-(p-methylbenzyl)-2′-deoxy-adenosine]
- Sleep prolonging rate (%) [2, 4]: 34%

Compound: CC(=O)OC[C@H]1O[C@@H](n2cnc3c(NCc4ccc5c(c4)OCO5)ncnc32)C[C@H]1OC(C)=O [Example 154, N^6-(3,4-methylenedioxy-benzyl)-3′,5′-diacetyl-2′-deoxyadenosine]
- Sleep prolonging rate (%) [2, 4]: 29%

Compound: CCCCCCCC(=O)OCC1OC(n2cnc3c(NCc4ccc5c(c4)OCO5)ncnc32)C2OC(C)(C)OC12 (stereo not drawn) [N^6-(3,4-methylenedioxybenzyl)-2′,3′-O-isopropylidene-adenosine-5′-caprylate]
- Sleep prolonging rate (%) [2, 4]: 4%

Compound: CCCC(=O)OCC1OC(n2cnc3c(NCc4ccc(OC(=O)CCC)c(OC)c4)ncnc32)C2OC(C)(C)OC12 (stereo not drawn) [N^6-(3-methoxy-4-butanoyloxy-benzyl)-2′,3′-O-isopropylidene-adenosine-5′-butyrate]
- Sleep prolonging rate (%) [2, 4]: 21%

Compound: CCCC(=O)OC[C@H]1O[C@@H](n2cnc3c(NCc4ccc(OC(=O)CCC)c(OC)c4)ncnc32)[C@@H](O)C1O (stereo partly drawn) [N^6-(3-methoxy-4-butanoyloxy-benzyl)-adenosine-5′-butyrate]
- Sleep prolonging rate (%) [2, 4]: 11%

Compound: CCCC(=O)Oc1ccc(CNc2ncnc3c2ncn3[C@@H]2O[C@H](CO)[C@@H](O)[C@H]2O)cc1OC [N^6-(3-methoxy-4-butanoyloxy-benzyl)-adenosine]
- Sleep prolonging rate (%) [2, 4]: 11%

Compound: COc1cc(CNc2ncnc3nc[nH]c23)ccc1O [N^6-(3-methoxy-4-hydroxybenzyl)-adenine]
- Sleep rate (%) ([1]; 1 mg/kg): 38%

Compound: COc1ccccc1CNc1ncnc2c1ncn2[C@@H]1O[C@H](CO)[C@@H](O)[C@H]1O [N^6-(o-methoxybenzyl)-adenosine]
- Sleep rate (%) ([1]; 1 mg/kg): 100%

Compound: Cc1ccc(-c2nc3ccc(C)cn3c2CC(=O)N(C)C)cc1 [zolpidem, reference compound]
- Sleep rate (%) ([1]; 2 mg/kg): 75%

Compound: N^6-[(R)-1-(phenyl)-propyl]-2′,3′-O-isopropylidene-adenosine-5′-acetate
- Sleep prolonging rate (%) [2, 4]: 18%

Compound: N^6-[(S)-1-(phenyl)-propyl]-adenosine-5′-decanoic ether [Example 84]
- Sleep prolonging rate (%) [2, 4]: 4%

Compound: N^6-[(±)-1-(3,4,5-trimethoxyphenyl)-ethyl]-adenosine-5′-decanoic ether [Example 56]
- Sleep prolonging rate (%) [2, 4]: 2%
